In patent publication US9855265B2, “Methods for treating cancer with TrkA receptor tyrosine kinase antagonists” (VM Oncology LLC, priority 2014, dated 2018):
Read-outs that look alike come from different tables or passages of the source.

Experiments:
[1] = target: T1, TIE2/TEK (Homo sapiens, UniProt Q02763); assay: radiometric kinase assay, other kinases: TIE2/TEK; type: biochemical; conditions: duplicate
T1 construct: other kinases of recombinant human cytoplasmic domain
Protocol: (§1) Compound inhibition in a radiometric based mixed micelle assay: In a final reaction volume of 25 μL, TrkA (h) ([…]) is incubated with the kinase reaction buffer (20 mM HEPES (pH 7.5), 10 mM MgCl2, 1 mM EGTA, 0.02% Brij 35, 0.02 mg/ml BSA, 0.1 mM Na3VO4, 2 mM DTT, 1% DMSO), 0.2 mg/ml substrate PolyEY(4:1) and […], and [^33P-ATP](specific activity approx. 500 cpm/pmol, concentration as required). The reaction is initiated by the addition of the MgATP mix. After incubation for at least 40 minutes at room temperature, the reaction is stopped by the addition of 5 μL of a 3% phosphoric acid solution. 10 μL of the reaction is then spotted onto a P30 filtermat and washed three times for 5 minutes in 75 mM phosphoric acid and once in methanol prior to drying and scintillation counting. TrkA: Recombinant Human Cytoplasmic Domain (amino acids 441-796), Histidine-tagged, expressed in insect cells. Activated in vitro via auto-phosphorylation. Mw=42.8 kDa. Substrates for kinases: poly(EY) for TRKA; poly(EY)(4:1) with 2 mM MnCl2, average Mw=16 kDa Standard conditions (unless otherwise specified): 30 nM TRKA, 0.2 mg/ml poly(EY)+2 mM MnCl2, and 10 μM ([γ-^33P]) ATP. Using the similar assay condition with other kinases of recombinant human cytoplasmic domain, the activities of other kinases could be also measured.

[2] = target: T2, PDGFRb (Homo sapiens, UniProt P09619); assay: radiometric kinase assay, other kinases: PDGFRb; type: biochemical; conditions: duplicate
T2 construct: other kinases of recombinant human cytoplasmic domain
T2 sequence (P09619 554-1106 limits assumed): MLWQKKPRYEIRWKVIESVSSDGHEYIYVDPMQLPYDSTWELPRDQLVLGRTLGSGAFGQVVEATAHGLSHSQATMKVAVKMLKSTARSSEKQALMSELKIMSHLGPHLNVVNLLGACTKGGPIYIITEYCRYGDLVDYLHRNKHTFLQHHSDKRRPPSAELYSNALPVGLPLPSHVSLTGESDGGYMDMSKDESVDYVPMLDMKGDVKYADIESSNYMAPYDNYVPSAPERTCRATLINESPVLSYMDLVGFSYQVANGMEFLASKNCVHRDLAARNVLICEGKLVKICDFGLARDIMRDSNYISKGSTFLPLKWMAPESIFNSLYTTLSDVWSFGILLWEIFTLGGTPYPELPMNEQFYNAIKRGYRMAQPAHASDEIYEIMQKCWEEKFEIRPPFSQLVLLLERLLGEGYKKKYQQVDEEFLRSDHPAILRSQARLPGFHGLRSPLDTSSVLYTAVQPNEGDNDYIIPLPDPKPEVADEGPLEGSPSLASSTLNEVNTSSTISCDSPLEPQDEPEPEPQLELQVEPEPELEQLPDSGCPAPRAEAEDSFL
Protocol: as §1

[3] = Pharmacokinetics and bioavailability in CD-1 mice; conditions: in vivo
Protocol: Pharmacokinetic and bioavailabilities after oral and intraperitoneal (i.p.) treatment bioavailability in CD-1 mice. Pharmacokinetics and bioavailability of after oral and i.p. treatment in CD-1 mice (n=4 per dose group) are determined.

[4] = target: PKCbetaI (Homo sapiens, UniProt P05771); assay: radiometric kinase assay, other kinases: PKCbetaI; type: biochemical; conditions: duplicate
Protocol: as §1

[5] = target: MEK1 (Homo sapiens, UniProt Q02750); assay: radiometric kinase assay, other kinases: MEK1; type: biochemical; conditions: duplicate
Protocol: as §1

[6] = target: JAK3 (Homo sapiens, UniProt P52333); assay: radiometric kinase assay, other kinases: JAK3; type: biochemical; conditions: duplicate
Protocol: as §1

[7] = target: RAF1 (Homo sapiens, UniProt P04049); assay: radiometric kinase assay, other kinases: RAF1; type: biochemical; conditions: duplicate
Sequence of RAF1 (P04049 whole entry): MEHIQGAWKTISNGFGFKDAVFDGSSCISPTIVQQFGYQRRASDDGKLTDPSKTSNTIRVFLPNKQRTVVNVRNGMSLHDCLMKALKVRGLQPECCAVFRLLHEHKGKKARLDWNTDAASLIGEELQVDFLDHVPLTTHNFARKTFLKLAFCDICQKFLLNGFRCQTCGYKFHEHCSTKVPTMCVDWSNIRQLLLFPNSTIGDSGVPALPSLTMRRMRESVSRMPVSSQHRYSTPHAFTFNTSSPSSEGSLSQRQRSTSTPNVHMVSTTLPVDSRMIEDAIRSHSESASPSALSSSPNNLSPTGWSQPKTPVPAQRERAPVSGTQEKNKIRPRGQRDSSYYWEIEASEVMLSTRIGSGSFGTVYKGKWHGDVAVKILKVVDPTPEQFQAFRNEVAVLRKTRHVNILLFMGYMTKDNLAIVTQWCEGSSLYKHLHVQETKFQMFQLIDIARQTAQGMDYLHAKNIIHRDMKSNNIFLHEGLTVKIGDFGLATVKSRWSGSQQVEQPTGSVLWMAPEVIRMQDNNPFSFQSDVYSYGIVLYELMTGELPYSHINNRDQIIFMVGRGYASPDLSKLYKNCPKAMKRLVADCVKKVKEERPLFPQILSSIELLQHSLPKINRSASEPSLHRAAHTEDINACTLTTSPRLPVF
Protocol: as §1

[8] = target: TrkB (Homo sapiens, UniProt Q16620); assay: radiometric kinase assay, other kinases: TrkB; type: biochemical; design: other kinases of recombinant human cytoplasmic domain; conditions: duplicate
Protocol: as §1

[9] = target: BMX (Homo sapiens, UniProt P51813); assay: radiometric kinase assay, other kinases: BMX; type: biochemical; conditions: duplicate
Sequence of BMX (P51813 whole entry): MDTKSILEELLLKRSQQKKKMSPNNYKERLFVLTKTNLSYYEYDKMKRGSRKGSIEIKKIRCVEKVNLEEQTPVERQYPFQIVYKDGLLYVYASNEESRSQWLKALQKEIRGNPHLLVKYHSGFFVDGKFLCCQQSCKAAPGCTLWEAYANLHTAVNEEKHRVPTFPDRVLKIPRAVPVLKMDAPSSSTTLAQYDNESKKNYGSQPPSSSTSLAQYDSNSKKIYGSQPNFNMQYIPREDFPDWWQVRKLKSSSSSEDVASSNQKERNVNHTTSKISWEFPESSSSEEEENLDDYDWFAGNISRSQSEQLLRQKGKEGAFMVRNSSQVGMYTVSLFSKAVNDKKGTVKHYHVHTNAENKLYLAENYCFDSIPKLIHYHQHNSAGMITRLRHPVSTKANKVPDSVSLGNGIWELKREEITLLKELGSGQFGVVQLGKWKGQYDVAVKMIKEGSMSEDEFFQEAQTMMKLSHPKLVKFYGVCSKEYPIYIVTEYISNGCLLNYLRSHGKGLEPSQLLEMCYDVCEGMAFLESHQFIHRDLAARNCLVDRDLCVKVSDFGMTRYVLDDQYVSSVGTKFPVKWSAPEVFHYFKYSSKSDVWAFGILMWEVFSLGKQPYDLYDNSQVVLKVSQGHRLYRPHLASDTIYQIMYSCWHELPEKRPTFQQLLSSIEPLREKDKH
Protocol: as §1

[10] = target: FGR (Homo sapiens, UniProt P09769); assay: radiometric kinase assay, other kinases: FGR; type: biochemical; conditions: duplicate
Sequence of FGR (P09769 whole entry): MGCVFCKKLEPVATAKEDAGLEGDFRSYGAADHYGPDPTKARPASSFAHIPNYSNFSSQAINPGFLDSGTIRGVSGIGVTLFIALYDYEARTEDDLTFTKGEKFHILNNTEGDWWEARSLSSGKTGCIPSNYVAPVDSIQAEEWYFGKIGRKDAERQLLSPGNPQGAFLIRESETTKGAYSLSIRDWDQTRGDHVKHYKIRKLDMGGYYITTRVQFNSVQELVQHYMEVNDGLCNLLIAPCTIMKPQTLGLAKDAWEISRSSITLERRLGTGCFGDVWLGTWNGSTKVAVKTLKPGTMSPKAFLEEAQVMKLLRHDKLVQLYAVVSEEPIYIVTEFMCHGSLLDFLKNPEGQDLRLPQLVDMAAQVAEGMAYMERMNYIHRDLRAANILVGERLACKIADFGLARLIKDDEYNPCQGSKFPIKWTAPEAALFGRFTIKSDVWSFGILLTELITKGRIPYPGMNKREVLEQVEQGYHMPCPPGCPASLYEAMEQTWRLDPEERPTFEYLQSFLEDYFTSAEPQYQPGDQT
Protocol: as §1

[11] = target: LYN (Homo sapiens, UniProt P07948); assay: radiometric kinase assay, other kinases: LYN; type: biochemical; conditions: duplicate
Protocol: as §1

[12] = target: PKCiota (Homo sapiens, UniProt P41743); assay: radiometric kinase assay, other kinases: PKCiota; type: biochemical; conditions: duplicate
Protocol: as §1

[13] = system: HepG2 human liver cancer cells; assay: Cell Viability and Proliferation Assay, HepG2; type: cell-based; conditions: after 24 incubation
Protocol: (§2) Cell Viability and Proliferation Assays. To assess the chemosensitivity of tumor cells, cell viability is measured by CellTiter-Glo® Luminescent Cell Viability Assay (Promega; Wis., USA) per the manufacturer's instruction. Briefly, 5×10^3 to 7×10^5 cells/ml are cultured in sterile 96-well plates in the presence of increasing concentrations of the drugs (test article, 0 to 100 μM), or vehicle in RPMI medium. The plates are then incubated for 24 to 96 h, and then 100 μl of CellTiter-Glo reagent is added to lyse the cells. After a 10-min incubation at room temperature, the luminescence is recorded in a luminometer with an integration time of 1 s per well. The luminescence signals for the drug-treated cells are normalized by the luminescence signal obtained from vehicle-treated cells. As an alternative method to quantitate cell viability, the trypan blue exclusion dye method was used. Vehicle- or drug-treated cells were assayed by adding trypan blue solution (0.4% in phosphate-buffered saline [PBS]) to the culture medium. After 3 min, the number of dead cells that retained the dye is compared to the total number of cells to calculate cell viability. GraphPad Prism 5 software is used to calculate IC50 and plot effect-dose curve of drugs. Multiplate reader: EnVision 2104 (PerkinElmer). % of control variability=100*[(X(drug_treated)−L(baseline))/(H(vehicle_control)−L(baseline))]. […]

[14] = target: ITK (Homo sapiens, UniProt Q08881); assay: radiometric kinase assay, other kinases: ITK; type: biochemical; conditions: duplicate
Sequence of ITK (Q08881 whole entry): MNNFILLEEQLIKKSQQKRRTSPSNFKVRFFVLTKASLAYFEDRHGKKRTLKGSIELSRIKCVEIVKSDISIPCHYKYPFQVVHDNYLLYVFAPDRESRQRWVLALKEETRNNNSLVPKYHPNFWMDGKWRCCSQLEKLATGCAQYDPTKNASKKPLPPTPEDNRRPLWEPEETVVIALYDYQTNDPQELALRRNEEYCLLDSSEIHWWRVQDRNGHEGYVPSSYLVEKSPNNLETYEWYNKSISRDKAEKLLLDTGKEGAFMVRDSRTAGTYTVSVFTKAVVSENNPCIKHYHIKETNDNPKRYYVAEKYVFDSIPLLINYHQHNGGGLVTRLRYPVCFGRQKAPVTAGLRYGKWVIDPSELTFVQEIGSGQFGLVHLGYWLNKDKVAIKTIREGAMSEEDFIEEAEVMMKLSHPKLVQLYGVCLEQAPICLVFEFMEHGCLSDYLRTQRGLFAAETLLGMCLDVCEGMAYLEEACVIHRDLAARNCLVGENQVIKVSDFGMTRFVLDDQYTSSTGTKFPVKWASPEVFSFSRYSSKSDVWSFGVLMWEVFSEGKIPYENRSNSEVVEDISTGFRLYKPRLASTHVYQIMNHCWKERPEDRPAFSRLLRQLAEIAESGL
Protocol: as §1

[15] = system: PANC-1 subcutaneous human pancreatic cancer xenografts; assay: PANC-1 Subcutaneous Human Pancreatic Cancer Xenograft Mouse Model
Protocol: Temperature: 22±3° C. Humidity: 50±20%. Light cycle: 12 hours light and 12 hours dark. Cages: Polycarbonate cages of 300 mm×180 mm×150 mm embedded with the soft wood material were used. The bedding was changed twice a week. Diet: Animals had free access to a certified commercial laboratory diet. Concentrations of contaminants in the diet are routinely analyzed by the manufacturers to ensure the contaminants are below their allowable maximum and thus would not affect the tumor growth.
Water: Animals had free access to sterile drinking water. Cage identification: The identification labels for each cage contained the following information: number of animals, sex, strain, date received, treatment, group number and the starting date of the treatment. Briefly, PANC-1 cell line was originally purchased from the ATCC (CRL-1469) and the PANC-1 primary cell line was derived from the PANC-1 subcutaneously xenograft tumors. The PANC-1 primary cells were maintained in vitro as monolayer culture in DMEM medium supplemented with 10% heat inactivated fetal bovine serum, 100 U/ml penicillin and 100 μg/ml streptomycin and L-glutamine (2 mM) at 37° C. in an atmosphere of 5% CO2 air. The cells growing in exponential phase were harvested and counted for tumor inoculation.
Tumor Cell Inoculation and Randomization. Each animal was inoculated subcutaneously on the right flank with the PANC-1 primary tumor cells (5×10^6/animal) in 0.1 mL of PBS. Tumor development was allowed undisrupted until mean tumor volume reached approximately 85 mm^3. Animals were then randomized into 6 groups, with each group consisting of 8 animals. The test articles were administered to the tumor-bearing animals according to predetermined regimens. […] At the time of routine monitoring, the animals were checked for any effects of tumor growth on normal behavior such as mobility, food and water consumption (by looking only), body weight (BW) gain/loss (BW was measured twice weekly), eye/hair matting and any other abnormal effect. Death and observed clinical signs were recorded on the basis of the numbers of animals within each subset.
Tumor Measurement and the Endpoints: The major endpoint was to evaluate if the tumor growth could be inhibited. Tumor measurement was conducted twice weekly with a caliper and the tumor volume (mm3) is estimated using the formula: TV=a×b^2/2, where a and b are long and short diameters of a tumor, respectively. The tumor sizes were then used for T/C value and TGI (tumor growth inhibition), which are indicators of anti-tumor effectiveness. The T/C value (in percent) is an indication of antitumor effect. T and C are the mean volumes of the treated and control groups, respectively, on a given day. BW change, expressed as %, is calculated using the following formula: BW change (%)=(BW_DayX/BW_Day0)×100, where BW_DayX is BW on a given day, and BW_Day0 was BW on Day 0 (tumor inoculation).
Tumor Sample Collection: Two tumor samples from Group 1, 2 and 3, respectively; six tumor samples from Group 4; five tumor samples from Group 5 and 6, respectively, were snap frozen in liquid nitrogen and kept at −80° C. Total 22 tumor samples were collected.
Statistical Analyses: A one-way ANOVA was performed to compare tumor volumes among groups. All data were analyzed using the SPSS 17.0 software; p<0.05 was considered statistically significant.

[16] = target: MLK1/MAP3K9 (Homo sapiens, UniProt P80192); assay: radiometric kinase assay, other kinases: MLK1/MAP3K9; type: biochemical; conditions: duplicate
Protocol: as §1

[17] = target: FYN (Homo sapiens, UniProt P06241); assay: radiometric kinase assay, other kinases: FYN; type: biochemical; conditions: duplicate
Protocol: as §1

[18] = system: Capan-1 human pancreatic cancer cells; assay: Cell Viability and Proliferation Assay, Capan-1; type: cell-based; conditions: after 24 incubation
Protocol: as §2

[19] = target: FES/FPS (Homo sapiens, UniProt P07332); assay: radiometric kinase assay, other kinases: FES/FPS; type: biochemical; conditions: duplicate
Sequence of FES/FPS (P07332 whole entry): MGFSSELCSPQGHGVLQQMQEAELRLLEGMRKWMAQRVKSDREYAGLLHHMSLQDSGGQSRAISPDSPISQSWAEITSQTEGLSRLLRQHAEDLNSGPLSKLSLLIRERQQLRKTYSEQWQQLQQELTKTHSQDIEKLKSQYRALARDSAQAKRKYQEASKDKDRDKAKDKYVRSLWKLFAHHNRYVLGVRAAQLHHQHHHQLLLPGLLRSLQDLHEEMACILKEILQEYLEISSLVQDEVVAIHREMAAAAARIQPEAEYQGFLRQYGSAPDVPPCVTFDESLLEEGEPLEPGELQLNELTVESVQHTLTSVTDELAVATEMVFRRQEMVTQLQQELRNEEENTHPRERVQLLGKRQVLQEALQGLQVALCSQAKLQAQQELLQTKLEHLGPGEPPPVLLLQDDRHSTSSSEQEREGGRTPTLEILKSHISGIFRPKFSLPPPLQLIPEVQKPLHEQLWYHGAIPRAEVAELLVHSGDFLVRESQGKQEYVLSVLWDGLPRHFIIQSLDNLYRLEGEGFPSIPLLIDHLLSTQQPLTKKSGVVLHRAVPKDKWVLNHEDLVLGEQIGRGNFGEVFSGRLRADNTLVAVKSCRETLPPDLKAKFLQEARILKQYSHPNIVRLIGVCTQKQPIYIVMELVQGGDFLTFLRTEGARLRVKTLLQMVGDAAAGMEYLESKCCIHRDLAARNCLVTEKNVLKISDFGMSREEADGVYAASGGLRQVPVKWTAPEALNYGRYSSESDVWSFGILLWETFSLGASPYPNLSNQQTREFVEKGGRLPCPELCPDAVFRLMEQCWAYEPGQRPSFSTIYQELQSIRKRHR
Protocol: as §1

[20] = target: ABL1 (Homo sapiens, UniProt P00519); assay: radiometric kinase assay, other kinases: ABL1; type: biochemical; conditions: duplicate
Sequence of ABL1 (P00519 whole entry): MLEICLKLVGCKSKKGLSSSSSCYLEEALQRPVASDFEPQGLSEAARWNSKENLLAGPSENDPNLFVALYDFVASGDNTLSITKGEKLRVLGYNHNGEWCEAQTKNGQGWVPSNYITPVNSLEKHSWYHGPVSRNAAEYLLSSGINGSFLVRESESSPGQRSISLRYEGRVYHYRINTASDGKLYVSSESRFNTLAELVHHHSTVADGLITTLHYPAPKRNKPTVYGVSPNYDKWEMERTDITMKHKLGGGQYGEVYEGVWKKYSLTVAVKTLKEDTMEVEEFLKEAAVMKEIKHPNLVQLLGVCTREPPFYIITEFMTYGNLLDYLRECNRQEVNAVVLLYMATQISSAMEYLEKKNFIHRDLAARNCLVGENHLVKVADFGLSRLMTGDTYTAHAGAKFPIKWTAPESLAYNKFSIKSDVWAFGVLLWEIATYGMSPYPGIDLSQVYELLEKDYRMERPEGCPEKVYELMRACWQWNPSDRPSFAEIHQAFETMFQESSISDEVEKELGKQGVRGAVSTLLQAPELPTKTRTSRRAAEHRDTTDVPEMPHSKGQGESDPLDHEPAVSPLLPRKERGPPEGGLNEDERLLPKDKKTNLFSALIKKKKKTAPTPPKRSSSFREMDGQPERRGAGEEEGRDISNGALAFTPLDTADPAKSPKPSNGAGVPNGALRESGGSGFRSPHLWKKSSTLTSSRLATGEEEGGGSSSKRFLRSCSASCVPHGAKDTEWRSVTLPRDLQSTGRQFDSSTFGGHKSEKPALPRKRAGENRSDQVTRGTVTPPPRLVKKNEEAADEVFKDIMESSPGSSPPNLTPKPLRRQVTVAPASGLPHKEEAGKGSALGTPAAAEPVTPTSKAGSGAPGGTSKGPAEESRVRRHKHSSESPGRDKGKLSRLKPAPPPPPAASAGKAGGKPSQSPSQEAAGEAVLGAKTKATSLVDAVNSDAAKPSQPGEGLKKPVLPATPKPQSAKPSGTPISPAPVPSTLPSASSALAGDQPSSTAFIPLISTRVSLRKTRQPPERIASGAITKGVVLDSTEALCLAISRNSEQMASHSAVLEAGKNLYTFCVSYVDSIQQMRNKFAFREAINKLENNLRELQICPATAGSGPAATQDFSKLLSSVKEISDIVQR
Protocol: as §1

[21] = target: P38a/MAPK14 (Homo sapiens, UniProt Q16539); assay: radiometric kinase assay, other kinases: P38a/MAPK14; type: biochemical; conditions: duplicate
Protocol: as §1

[22] = target: PKCdelta (Homo sapiens, UniProt Q05655); assay: radiometric kinase assay, other kinases: PKCdelta; type: biochemical; conditions: duplicate
Protocol: as §1

## Nc1c(N2CCN(C3CCCCC3)CC2)cc(Nc2ccc(C(=O)O)cc2)c2c1C(=O)c1ccccc1C2=O [Compound 12, 4-{[4-amino-3-(4-cyclohexylpiperazin-1-yl)-9,10-dioxo-9,10-dihydroanthracen-1-yl]amino}benzoic acid]
[1]
  IC50: > 10 µM
[2]
  IC50: > 10 µM
[3]; CD-1, mouse, ip, 50 mg/kg
  half-life: ~3.5 h
[3]; CD-1, mouse, iv
  half-life: ~1 h
[3]; CD-1, mouse, po, 50 mg/kg
  bioavailability: ~100%
  half-life: ~4.5 h
[3]; mouse, ip, CD-1 mice, 50 mg/kg i.p. dosing, read-out: i.p. bioavailability
  bioavailability: ~100%
[4]
  IC50: > 10 µM
[5]
  IC50: > 10 µM
[6]
  IC50: > 10 µM
[7]
  IC50: > 10 µM
[8]
  IC50: > 10 µM
[9]
  IC50: > 10 µM
[10]
  IC50: > 10 µM
[11]
  IC50: > 10 µM
[12]
  IC50: > 10 µM
[13]
  IC50: ~5 µM
[14]
  IC50: > 10 µM
[15]; D18, Compound-12 alone, dose not given
  TGI (%, D18): 34%
[15]; Day 7, Compound-12 alone, dose not given
  Tumor volume (Mean ± SEM): 84 ± 4 mm^3
[15]; Day 11, Compound-12 alone, dose not given
  Tumor volume (Mean ± SEM): 111 ± 5 mm^3
[15]; Day 14, Compound-12 alone, dose not given
  Tumor volume (Mean ± SEM): 157 ± 15 mm^3
[15]; Day 18, Compound-12 alone, dose not given
  Tumor volume (Mean ± SEM): 234 ± 8 mm^3
[15]; Day 19, Compound-12 alone, dose not given
  Tumor volume (Mean ± SEM): 276 ± 27 mm^3
[15]; alone or in combination with gemcitabine
  anti-tumor efficacy in words: efficacious in reducing tumor growth
[16]
  IC50: > 10 µM
[17]
  IC50: > 10 µM
[18]
  IC50: 2 to 5 µM
[19]
  IC50: > 10 µM
[20]
  IC50: > 10 µM
[21]
  IC50: > 10 µM
[22]
  IC50: > 10 µM
